Experimental data published in publication PMC5792431 (Scientific Reports, 2018).
Values after ≈ are worked out from the molar mass of the structure shown. Where two headings read alike, the source gives them in different places.

What was measured:
rRVFVΔNSs::Katushka [1] = experiment: microbe, parasite or virus in culture; assay type: cell-based, Rift Valley fever virus; settings: for EC50: read-out: EC50, inhibition of fluorescent cell foci
[2] = human, microsomes, pH 7.4
in vitro [3] = settings: human, microsomes, pH 7.4
in vitro [4] = settings: both, human, plasma, pH 7.4
[5] = human
in vitro [6] = settings: human, Caco-2, pH 7.4
physchem [7] = settings: 37 °C, pH 7.4, aqueous buffer, thermodynamic from solid
physchem [8] = settings: pH 7.4
in vitro [9] = settings: human, hepatocytes
rRVFVΔNSs::Katushka [10] = assay type: cell-based, Rift Valley fever virus
rRVFVΔNSs::Katushka [11] = experiment: microbe, parasite or virus in culture; assay type: cell-based; settings: Rift Valley fever virus, A549, 16 h, read-out: EC50, inhibition of RVFV RNA expression (qPCR)
physchem [12] = settings: plasma or biological fluid
in vitro [13] = settings: mouse, plasma, pH 7.4
RVFV virions = assay type: cell-based, Rift Valley fever virus
[14] = mouse, microsomes, pH 7.4
A549 cells = settings: cited from earlier work
[15] = female, BALB/C, mouse, in vivo
[16] = mouse, in vivo
in vivo = settings: female, BALB/C, mouse
rRVFVΔNSs::Katushka [17] = experiment: microbe, parasite or virus in culture; assay type: cell-based, Rift Valley fever virus
in vitro [18] = settings: mouse, microsomes, pH 7.4
[19] = Rift Valley fever virus, A549, 16 h

## CC(C)(C)C(=O)Nc1ccccc1C(=O)Nc1ccccc1C(=O)O [17d]
rRVFVΔNSs::Katushka [1]
  EC50, inhibition of fluorescent cell foci: out of range

## O=C(O)c1ccccc1NC(=O)c1ccccc1NC(=O)C1CCCCC1 [17e]
rRVFVΔNSs::Katushka [1]
  EC50, inhibition of fluorescent cell foci: out of range

## O=C(Nc1cc(Cl)ccc1C(=O)Nc1ccccc1C(=O)O)c1ccccc1F [35f]
rRVFVΔNSs::Katushka [1]; [19]
  EC50: 4.5 µM
rRVFVΔNSs::Katushka [1]
  EC50: 4.6 µM

## O=C(Nc1ccccc1C(=O)Nc1ccccc1C(=O)O)c1ccccc1 [Benzavir-1, 2-{[2-(benzoylamino)benzoyl]amino}-benzoic acid]
[2]
  CLH, u (HLM): 1.0 L/h
In vitro [3]
  microsomal CLint: 3.9 ± 0.8 µL/min/mg
In vitro [4]
  fraction unbound: 0.0003
[5]
  CLH, u (HHep): 2.3 L/h
In vitro [6]
  Papp A→B: 32 ± 3 ×10⁻⁶ cm/s
  Papp B→A: 31 ± 2 ×10⁻⁶ cm/s
  efflux ratio: 1
Physchem [7]
  solubility: 930 ± 110 µM (≈ 335 µg/mL)
rRVFVΔNSs::Katushka [1]; [19]
  EC50: 10.1 µM
Physchem [8]
  logD: 1.52 ± 0.02
In vitro [9]
  hepatocyte CLint: 3.1 ± 0.1 µL/min/1e6 cells

## O=C(Nc1cc(F)c(F)cc1C(=O)Nc1ccccc1C(=O)O)c1ccccc1F [Benzavir-2, 2-(4,5-difluoro-2-(2-fluorobenzamido)benzamido)benzoic acid]
rRVFVΔNSs::Katushka [10]
  inhibitory effect by time of addition: the inhibitory effect on the formation of the fluorescent cell foci was the greatest
rRVFVΔNSs::Katushka [11]
  EC50: 1.7 µM
Physchem [12]
  solubility: > 150 µM
In vitro [13]
  fraction unbound: 0.0076 ± 0.0002
RVFV virions
  inhibition of binding or uptake of RVFV virions: No inhibition of binding or uptake of RVFV virions
[14]
  CLH, u (MLM): 0.15 L/h
A549 cells
  CC50: not achieved within these concentrations
[15]; ip, 2 mg/kg
  Fapp: 43 ± 15%
[15]; ip, 10 mg/kg
  Fapp: 120 ± 40%
[15]; iv
  iv CL relative to unbound in vitro metabolic CL: 2–4 times higher
[15]; po, 2 mg/kg
  Fapp: 14 ± 5%
[15]; po, 10 mg/kg
  Fapp: 54 ± 18%
[2]
  CLH, u (HLM): 1.4 L/h
In vitro [3]
  microsomal CLint: 3.8 ± 0.4 µL/min/mg
[16]
  weight loss or negative behavioural signs: No weight loss or negative behavioural signs were observed
In vivo; ip, 2 mg/kg
  Cmax: 2.3 µM
  Tmax: 15 min
  half-life: 84 ± 12 min
In vivo; ip, 10 mg/kg
  Cmax: 28 µM
  Tmax: 15 min
  half-life: 96 ± 12 min
In vivo; iv, 1 mg/kg
  Cmax: 7.8 µM
  Vd: 29 ± 7 L/kg
  clearance: 9.33 mL/min
  half-life: 42 ± 12 min
In vivo; iv, 2 mg/kg
  Cmax: 7.8 µM
  Vd: 20 ± 2 L/kg
  clearance: 6.17 mL/min
  half-life: 42 ± 6 min
In vivo; iv, 4 mg/kg
  Cmax: 20 µM
  Vd: 35 ± 7 L/kg
  clearance: 11.3 mL/min
  half-life: 42 ± 6 min
In vivo; po, 2 mg/kg
  Cmax: 0.4 µM
  Tmax: 30 min
  half-life: 180 ± 36 min
In vivo; po, 10 mg/kg
  Cmax: 13 µM
  Tmax: 30 min
  half-life: 180 ± 60 min
In vitro [4]
  fraction unbound: 0.0004 ± 0.0002
rRVFVΔNSs::Katushka [17]; 1.25 μM
  inhibition of release of viable progeny particles to the supernatant: > 95%
rRVFVΔNSs::Katushka [17]; Rift Valley fever virus, A549, 16 h, read-out: EC50, inhibition of production of progeny infectious virus
  EC50: 0.6 µM
In vitro [18]
  microsomal CLint: 3.8 ± 0.9 µL/min/mg
[5]
  CLH, u (HHep): 4.0 L/h
In vitro [6]
  Papp A→B: 55 ± 4 ×10⁻⁶ cm/s
  Papp B→A: 45 ± 3 ×10⁻⁶ cm/s
  efflux ratio: 0.8
Physchem [7]
  solubility: 130 ± 10 µM (≈ 53.9 µg/mL)
rRVFVΔNSs::Katushka [1]; [19]
  EC50: 0.6 µM
Physchem [8]
  logD: 1.56 ± 0.01
In vitro [9]
  hepatocyte CLint: 4.1 ± 0.4 µL/min/1e6 cells
